The values below come from patent publication US11034980B2, “Microbial engineering for the production of isoprenoids” (Massachusetts Institute of Technology, priority 2018, dated 2021).

Where two headings read alike, the source gives them in different places.

For orientation: Km means the concentration of substrate that gives half-maximal velocity.

Series [1] concerns the target T1, choline kinase from Saccharomyces cerevisiae (ScCK) (Saccharomyces cerevisiae, UniProt P20485).
T1 construct: S. cerevisiae (AAA34499.1), codon optimized; made in house; host or cells: E. coli BL21 (DE3)
T1 sequence (P20485 1-582): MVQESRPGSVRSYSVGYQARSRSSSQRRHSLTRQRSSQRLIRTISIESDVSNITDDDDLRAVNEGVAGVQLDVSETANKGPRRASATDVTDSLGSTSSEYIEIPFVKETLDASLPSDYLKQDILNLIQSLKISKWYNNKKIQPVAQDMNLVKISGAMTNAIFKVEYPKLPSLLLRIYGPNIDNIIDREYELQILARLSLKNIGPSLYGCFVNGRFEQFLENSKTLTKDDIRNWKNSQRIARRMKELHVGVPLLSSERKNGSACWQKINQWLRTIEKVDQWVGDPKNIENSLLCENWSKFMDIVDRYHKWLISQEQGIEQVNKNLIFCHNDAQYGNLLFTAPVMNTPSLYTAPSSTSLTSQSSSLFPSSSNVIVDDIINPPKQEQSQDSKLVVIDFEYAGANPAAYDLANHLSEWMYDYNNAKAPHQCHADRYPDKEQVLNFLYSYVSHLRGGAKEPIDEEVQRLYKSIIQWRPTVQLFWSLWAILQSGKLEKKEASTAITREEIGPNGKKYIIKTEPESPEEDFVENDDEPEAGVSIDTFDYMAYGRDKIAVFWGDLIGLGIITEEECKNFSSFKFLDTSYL
The note with it: Table 6, Ref Chatzivasileiou et al., 2018; cited from earlier work.

For series [2], the system named is multi-enzyme system (CK, IPK, IDI, IspA, GGPPS, TDS). Kind of series: Titration of cofactors and potential inhibitors in the taxadiene multi-enzyme system. In kind it is biochemical. On the procedure:
The multi-enzyme system reactions were carried out in 50 mM ammonium bicarbonate (pH 7.4) with 10 mM MgCl2, 2 mM MnCl2, 0.05% (w/v) Tween 20, 10 mM ATP, and 5 mM isoprenol at 30° C. unless otherwise stated. The solution in glass GC vials (Agilent) were overlaid with 1/10 volume of dodecane to entrap the volatile isoprenoids. An initial estimated optimal concentration of each enzyme was calculated using the rates determined by individual enzyme assays. The final optimized enzyme concentrations were determined to be 25 μg/mL CK, 15 μg/mL IPK, 25.4 μg/mL IDI, 37.15 μg/mL IspA, 8.15 μg/mL GGPPS, and 25 μg/mL for TDS.
A possible explanation for such inhibitions could be that the enzymes would salt out when a combined amount of >20 mM ATP+ADP (sodium salts) are added to the mixture. […] Since 8 moles of ATP are necessary for the synthesis of 1 mole of taxadiene, salting out of proteins by high concentrations of ATP sodium salt limits that maximum titer of taxadiene that can be achieved using this system making ATP the limiting reagent. […] Furthermore, the consumption of isoprenol in this process could not be determined due to the high variability the utilized GC-FID assay which could not accurately measure such small changes in isoprenol concentration.

In series [3] the target is Farnesyl pyrophosphate synthase (IspA) (Escherichia coli, UniProt P22939). To be noted: cited from earlier work; for Km: Ref Ku et al., 2005, Weaver et al., 2015.
Farnesyl pyrophosphate synthase (IspA), sequence (P22939 whole entry): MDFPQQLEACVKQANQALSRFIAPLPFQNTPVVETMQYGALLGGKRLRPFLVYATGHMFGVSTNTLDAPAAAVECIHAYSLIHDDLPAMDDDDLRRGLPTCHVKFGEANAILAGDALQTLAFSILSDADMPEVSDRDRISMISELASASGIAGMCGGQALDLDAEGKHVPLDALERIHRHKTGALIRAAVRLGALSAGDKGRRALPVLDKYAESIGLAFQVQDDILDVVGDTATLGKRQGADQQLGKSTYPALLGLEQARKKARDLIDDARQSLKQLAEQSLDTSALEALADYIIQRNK
In series [4] the target is T2, isopentenyl phosphate kinase (IPK) (Arabidopsis thaliana, UniProt Q8H1F7).
T2 construct: Arabidopsis thaliana (AAN12957.1), codon optimized; made in house; host or cells: E. coli BL21 (DE3)
T2 sequence (Q8H1F7 1-332): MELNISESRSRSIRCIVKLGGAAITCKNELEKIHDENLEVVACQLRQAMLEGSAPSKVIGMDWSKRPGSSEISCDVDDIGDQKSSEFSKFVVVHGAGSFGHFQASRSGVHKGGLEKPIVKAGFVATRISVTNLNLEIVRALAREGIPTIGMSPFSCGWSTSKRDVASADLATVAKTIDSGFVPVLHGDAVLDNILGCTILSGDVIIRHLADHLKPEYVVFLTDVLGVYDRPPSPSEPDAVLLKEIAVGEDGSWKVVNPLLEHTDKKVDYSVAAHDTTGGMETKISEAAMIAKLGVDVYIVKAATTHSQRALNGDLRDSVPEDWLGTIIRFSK
In words: IPK kinetics by ATP consumption, PK-LDH coupled NADH assay. It counts as biochemical. To be noted: 10 mM ATP, 30° C., pH 7.4. On the procedure: A single colony from each strain containing one plasmid for the expression of a single enzyme was inoculated into 5 mL of sterile LB media (BD Sciences) with kanamycin and grown overnight at 37° C. One milliliter was then inoculated into a 1 L flask containing 200 mL of sterile SOB media (AMERSCO) with kanamycin. The culture was grown at 30° C. until an optical density (OD) of 0.4-0.6 (λ=600 nm). At this point protein production was induced by the addition of IPTG for a final concentration of 0.1 mM and continued at 30° C. for 3 h. Cells were harvested by centrifugation at 3750 rpm in an Allegra X12R centrifuge (Beckman-Coulter). The supernatant was removed and the cell pellets were frozen at −20° C. until purification. Proteins were visualized by SDS-PAGE performed accordingly to the manufacturer's guidelines (Bio-rad). Gradient (4-20%) gels were purchased from Biorad, as were the Kaleidoscope pre-stained protein ladder, Laemmli 4× sample buffer, Tris-glycine-SDS buffer, and mini-protean electrophoresis chambers. Gels were stained using Instant-Blue (Expedeon). Protein concentrations were very roughly estimated from the gel using Image J (NIH) in order to determine an appropriate amount of resin for purification. Protein Purification All purification steps were performed in a single day on ice and in a cold room when possible. Cell pellets were thawed and resuspended in 30 mL of NPI-10 buffer (50 mM NaH2PO4, 300 mM NaCl, 10 mM imidazole, pH 8.0) and supplemented with 0.5 mM PMSF immediately prior to cell lysis. Cells were lysed by 2-3 passages through an EmulsiFlex-C5 high-pressure homogenizer (Avestin). Lysates were then centrifuged at 4 C for 15 min to remove cellular debris. The clarified lysate was loaded onto a Ni-NTA resin (Gold Bio, capacity 50 mg/mL) which was housed in a gravity column (Thermofisher) and was pre-equilibrated with 10 column volumes (CV) of NPI-10 buffer. The column was then washed with 10 CV of NPI-20 buffer (20 mM imidazole). The enzyme was then eluted from the column by 3 CV using NPI-250 buffer (250 mM imidazole). Enzymes were then exchanged into 50 mM Tris-HCl pH 7.5 using 10 kDa Microseps (Millipore) by centrifugation and repeated buffer exchanges until the imidazole was calculated to be under 1 mM. […] Enzyme concentration was determined using a bicinchoninic acid (BCA) assay kit from Pierce using bovine serum albumin as a standard (BSA). […] The kinetics for CK were previously determined as described. The kinetics for IPK were determined by ATP consumption using a pyruvate kinase (PK) lactate dehydrogenase (LDH) coupled assay (FIGS. 16A & 16B). […] NADH was made fresh each time and the appropriate concentration was determined by constructing a standard curve using a SpectraMax M3 and selecting the highest value in the linear range. […]

Series [5] deals with Geranylgeranyl pyrophosphate synthase (GGPPS). The note with it: reported elsewhere (Hefner et al., 1998); cited from earlier work.
Substrate in series [6]: C=C(C)CCO
In words: In vitro kinetic assay of purified choline kinase with isoprenol or prenol (LC-MS/MS). In kind it is biochemical, Saccharomyces cerevisiae. To be noted: other: 37° C., fixed ATP concentration, purified ScCK, pH 7.5. The procedure: (§1) Enzyme assays for screening of isopentenol kinase activity was performed as follows. The purified enzymes were added to the enzyme assay master mix for a final concentration of 2 mM ATP, 10 mM MgCl2, 50 mM NH4HCO3 pH 7.5, and 600 μM isoprenol or prenol. They were incubated overnight at 37° C. The reactions were stopped using 5 volumes of ice-cold acetonitrile and centrifuged to remove precipitated proteins using a plate adaptor at 3273×g for 15 min. The supernatant was transferred to a new microplate and frozen at −80° C. The liquid was removed by a 4.5 L lyophilizer (Labconco) and the samples were resuspended in an equal volume of water and centrifuged again prior to quantification using LC-MS/MS.
(§2) Kinetic enzyme assays were conducted using the standard assay conditions described above with the following changes. First, the linear range of the assay was determined over a 90 min period (FIG. 3). Initial velocity appeared linear over this period. Therefore, kinetic assays were quenched after 30 min. For assays at different temperatures, the standard reaction mixture was used while the temperature was varied using a water bath. […] Afterwards, reactions were performed in the standard reaction mixture with NH4HCO3 buffer was adjusted to the appropriate pH. For Michaelis-Menten kinetics, only the concentration of isoprenol or prenol was varied between 1.5-50 μM.

Substrate in series [7]: CC(C)=CCO
The series is described as above. In kind it is biochemical, Saccharomyces cerevisiae. To be noted: other: 37° C., fixed ATP concentration, purified ScCK, pH 7.5. The procedure:
as §1, §2

Consider `C=C(C)CCO` [Isoprenol, 3-methyl-3-buten-1-ol], for which, in series [1], the Km is 4540 µM and the kcat was 14.7 S^−1.
As to `Nc1ncnc2c1ncn2[C@@H]1O[C@H](COP(=O)(O)OP(=O)(O)OP(=O)(O)O)[C@@H](O)[C@H]1O` [ATP, adenosine triphosphate], in series [2] (20 mM ATP), the “effect on taxadiene production” value was “completely inhibited”. In addition, the “ATP levels that completely inhibited IspA” value in series [3] (Chen et al. (2017)) is “above 5 mM”.
As to `CC(C)=CCO` [Prenol, 3-methyl-2-buten-1-ol], in series [1], the Km is 1110 µM and the kcat is given as 1.13 S^−1.
For the molecule `CC(C)=CCC/C(C)=C/COP(=O)(O)OP(=O)(O)O` [GPP, geranyl diphosphate], in series [3] (reaction IPP + GPP), the Km is 10.3 µM.
On to `Nc1ncnc2c1ncn2[C@@H]1O[C@H](COP(=O)(O)OP(=O)(O)O)[C@@H](O)[C@H]1O` [ADP, adenosine diphosphate], for which, in series [2] (ADP 0-20 mM in the presence of 10 mM ATP), the “effect on taxadiene production” value was “Some inhibition”.
For `CC(C)=CCOP(=O)(O)O` [DMAP, dimethylallyl monophosphate], in series [4], the Km stood at 35.5 µM and the kcat is recorded as 53.1 S^−1.
For `CC(C)=CCC/C(C)=C/CC/C(C)=C/COP(=O)(O)OP(=O)(O)O` [FPP, farnesyl diphosphate], the Km in series [5] is 7 µM.
For `CC(C)=CCOP(=O)(O)OP(=O)(O)O` [DMAPP, dimethylallyl pyrophosphate], the Km in series [3] (reaction IPP + DMAPP) is 1.3 µM.

B1: choline kinase from Saccharomyces cerevisiae (ScCK) (Saccharomyces cerevisiae S288C) (protein)
chain: MVQESRPGSVRSYSVGYQARSRSSSQRRHSLTRQRSSQRLIRTISIESDVSNITDDDDLRAVNEGVAGVQLDVSETANKGPRRASATDVTDSLGSTSSEYIEIPFVKETLDASLPSDYLKQDILNLIQSLKISKWYNNKKIQPVAQDMNLVKISGAMTNAIFKVEYPKLPSLLLRIYGPNIDNIIDREYELQILARLSLKNIGPSLYGCFVNGRFEQFLENSKTLTKDDIRNWKNSQRIARRMKELHVGVPLLSSERKNGSACWQKINQWLRTIEKVDQWVGDPKNIENSLLCENWSKFMDIVDRYHKWLISQEQGIEQVNKNLIFCHNDAQYGNLLFTAPVMNTPSLYTAPSSTSLTSQSSSLFPSSSNVIVDDIINPPKQEQSQDSKLVVIDFEYAGANPAAYDLANHLSEWMYDYNNAKAPHQCHADRYPDKEQVLNFLYSYVSHLRGGAKEPIDEEVQRLYKSIIQWRPTVQLFWSLWAILQSGKLEKKEASTAITREEIGPNGKKYIIKTEPESPEEDFVENDDEPEAGVSIDTFDYMAYGRDKIAVFWGDLIGLGIITEEECKNFSSFKFLDTSYL
notes: S. cerevisiae (AAA34499.1), codon optimized; made in house; host or cells: E. coli BL21 (DE3)
For B1, in series [6], the Michaelis-Menten constant (Km) was found to be 4539 µM and the kcat turned out to be 14.7 s⁻¹. In series [7], the Michaelis-Menten constant (Km) was found to be 1113 µM and the kcat was determined as 1.1 s⁻¹.
